What all share (type): biochemical
The target in one assay is human Factor XIa (Homo sapiens, UniProt P03951). The assay can be described thus: Factor XIa enzyme inhibition assay (dose response, fluorogenic AMC substrate). The arrangement: Enzyme: Factor XIa. To be noted: purified enzyme; substrate 50 μM, enzyme 0.25 nM; read-out: hFXIa IC50. The protocol:
(§1) • Assay buffer: 20 mM Hepes, pH 7.4; 150 mM NaCl; 0.02% Tween 20 • Compounds: 10 mM stocks in DMSO • Substrate: 20 mM Glp-Pro-Arg-AMC, 25 mg/2.3 mL H2O (store at +4° C.) [Factor XIa, thrombin, and trypsin] • 20 mM Pro-Phe-Arg-AMC (Bachem I-1295), 25 mg/2.2 mL H2O or Boc-Leu-Gly-Arg-AMC (Bachem I-1105), 25 mg/2.07 mL H2O (store at +4° C.) [Factor Xa] • Enzyme: Factor XIa; 0.25 M in 50% glycerol (20 μg/mL) • Trypsin; 0.2 μM in 50% glycerol (4.8 μg/mL) • Thrombin; 0.2 μM in 50% glycerol (7.34 μg/mL) • Factor Xa; 0.2 μM in 50% glycerol (9.2 μg/mL)
(§2) • 1. Dilute the substrate to 100 μM in assay buffer (30 μL/6 mL). The enzyme is diluted to 0.5 nM just prior to use (12 L/6 mL for Factor XIa; 15 μL/6 mL for all of the rest.) • 2. Pipette 50 μL of substrate into each well of the 96 well (12×8) microtiter plate. (Column 1 is used as the 100% activity control and receives no compound, and Column 12 is the blank and receives no enzyme.) Add an additional 46 μL to column 2. • 3. Pipette 4 μL of each compound into the appropriate well in column 2 of the plate (unknowns assayed in triplicate, standard assayed in duplicate). The final compound concentration will be 1/50th of the stock. • 4. Serially two-fold dilute the compound by mixing the sample in column 2, removing 50 μL to the next well (column 3), mix and remove to column 4, etc. until column 11. After mixing column 11, remove 50 μL and discard. • 5. Pipette 50 μL of buffer into column 12. Initiate the reaction by adding 50 μL of enzyme solution to each well of columns 1-11 as rapidly as possible. • 6. Read the plate in a spectrophotometer (SpectraMax) at 30° C., wherein each well is measured every 60 s for 30 min. For Factor Xa assays, each well is measured every 1 min for a total of 60 min. • 7. For Factor XIa assays, the compounds are assayed, in duplicate, at 3 different starting concentrations, 20, 2, and 0.2 μM; 1:10, 1:100, and 1:1000 dilution of 10 mM stock or at 2, 0.2, and 0.02 μM; 1:100, 1:1000, and 1:10,000 dilution of 10 mM stock. Data for each concentration are combined for graphing and data fitting. • 8. Data can be used both for estimation of IC50 and for estimation of Kon.
Potential inhibitors of Factor XIa were evaluated using the following assay.
PyroGlu-Pro-Arg-7-methylaminocourin (AMC), available from CPC Scientific, Inc., is based on the substrate pyro-Glu-Pro-Arg-pNA (S-2366), available from Diapharma Group, Inc. (Columbus, Ohio), wherein the p-nitroanaline group is replaced with 7-methylaminocoumarin (AMC).
The final concentration of the substrate in the assay was 50 μM, and the final concentration of the enzyme was 0.25 nM. Inhibitors were tested by serial dilution over an appropriate range to yield a dose response curve for determination of the inhibitors' IC50 value. The assay mixture was read every minute for 30 minutes in order to generate progress curves. The plates were read in a Spectramax m5 Multimode Plate Reader (Molecular Devices LLC, Sunnyvale, Calif.). Dose response curves were fit to Equation 1 below in which A is the maximum inhibition, B is the minimum inhibition, C is the IC50, and D is the Hill coefficient.
Y=[(A−B)/(1+(X/C)^D)]+B (Equation 1)

A further assay addresses T1, Trypsin (Bos taurus, UniProt P00760).
T1 construct: gene PRSS1
T1 sequence (P00760 24-246): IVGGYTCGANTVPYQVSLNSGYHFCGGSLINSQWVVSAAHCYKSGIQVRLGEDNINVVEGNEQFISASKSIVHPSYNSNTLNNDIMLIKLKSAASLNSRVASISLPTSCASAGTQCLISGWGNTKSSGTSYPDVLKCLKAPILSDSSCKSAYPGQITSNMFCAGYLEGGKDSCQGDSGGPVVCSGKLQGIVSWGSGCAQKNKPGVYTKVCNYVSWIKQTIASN
The assay can be described thus: Dose response assay for protease inhibitors: trypsin. Conditions: ratio versus Factor XIa. How it is done: as §1, §2

In the next assay the target is T2, Thrombin (Homo sapiens, UniProt P00734).
T2 construct: Thrombin; 0.2 μM in 50% glycerol (7.34 μg/mL)
The assay can be described thus: Dose response assay for protease inhibitors: thrombin. To be noted: ratio versus Factor XIa. How it is done: as §1, §2

A further assay deals with T3, Factor Xa (Homo sapiens, UniProt P00742).
T3 construct: Factor Xa; 0.2 μM in 50% glycerol (9.2 μg/mL)
T3 sequence (P00742 235-488 limits assumed): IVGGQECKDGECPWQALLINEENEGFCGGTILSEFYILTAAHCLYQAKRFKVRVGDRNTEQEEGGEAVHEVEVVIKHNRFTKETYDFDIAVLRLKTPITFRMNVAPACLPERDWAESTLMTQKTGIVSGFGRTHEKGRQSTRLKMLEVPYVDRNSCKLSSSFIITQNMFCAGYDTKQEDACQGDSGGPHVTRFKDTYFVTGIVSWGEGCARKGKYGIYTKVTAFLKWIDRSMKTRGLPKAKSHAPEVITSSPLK
T3 sequence (P00742 41-179 partner limits assumed): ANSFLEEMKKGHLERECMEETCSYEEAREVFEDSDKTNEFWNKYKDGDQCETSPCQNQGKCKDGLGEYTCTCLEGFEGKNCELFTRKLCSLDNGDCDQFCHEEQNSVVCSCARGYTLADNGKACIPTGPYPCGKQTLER
The assay can be described thus: Dose response assay for protease inhibitors: Factor Xa. To be noted: ratio versus Factor XIa. How it is done:
as §1, §2

In general, IC50 refers to the concentration that gives 50% inhibition.

Sequence of human Factor XIa (P03951 388-625 limits assumed): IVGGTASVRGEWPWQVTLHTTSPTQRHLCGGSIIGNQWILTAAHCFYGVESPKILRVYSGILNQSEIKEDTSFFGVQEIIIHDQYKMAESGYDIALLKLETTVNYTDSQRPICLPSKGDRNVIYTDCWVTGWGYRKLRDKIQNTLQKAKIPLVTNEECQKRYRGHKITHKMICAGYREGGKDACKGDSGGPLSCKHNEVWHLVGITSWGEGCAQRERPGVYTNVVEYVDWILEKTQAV
Sequence of human Factor XIa (P03951 19-387 partner limits assumed): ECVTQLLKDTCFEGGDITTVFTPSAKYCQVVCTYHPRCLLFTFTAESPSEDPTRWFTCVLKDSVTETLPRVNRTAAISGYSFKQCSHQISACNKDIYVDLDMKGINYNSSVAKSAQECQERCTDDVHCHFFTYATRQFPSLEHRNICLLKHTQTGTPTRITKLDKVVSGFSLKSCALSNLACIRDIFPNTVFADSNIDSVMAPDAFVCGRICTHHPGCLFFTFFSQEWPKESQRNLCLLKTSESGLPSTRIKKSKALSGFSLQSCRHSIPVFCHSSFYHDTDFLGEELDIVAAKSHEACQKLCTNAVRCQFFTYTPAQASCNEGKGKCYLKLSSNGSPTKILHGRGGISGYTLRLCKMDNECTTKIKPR

On to `CC[C@@H](NC(=O)N1C(=O)[C@H](Cc2ccnc(N)c2)[C@H]1C(=O)N(C)c1cccc(F)c1)C1CCCCC1` [Compound 29], for which, on human Factor XIa, the IC50 is less than 10 nM. Besides, the “Ratio: Trypsin/FXIa” value on Trypsin is listed as “G (“G” indicates 1-100)”. Further, the “Ratio: Thrombin/FXIa” value on Thrombin is “H (“H” indicates 101-1000)”. For the same compound, on Factor Xa, the “FXa/FXIa (selectivity ratio)” value is “I (“I” indicates >500)”.
The like results for `CC[C@@H](NC(=O)N1C(=O)[C@H](Cc2ccnc(N)c2)[C@H]1C(=O)N(CC)c1ccccc1)C1CCCCC1` [Compound 31] were, in that order, less than 10 nM, “G (“G” indicates 1-100)”, “H (“H” indicates 101-1000)” and “I (“I” indicates >500)”.
The like results for `CC(C)[C@@H](NC(=O)N1C(=O)[C@H](Cc2ccnc(N)c2)[C@H]1C(=O)N(C)c1ccccc1)C1CCCCC1` [Compound 35] were, in that order, less than 10 nM, “G (“G” indicates 1-100)”, “H (“H” indicates 101-1000)” and “I (“I” indicates >500)”.
`CC[C@@H](NC(=O)N1C(=O)[C@H](Cc2ccnc(N)c2)[C@H]1C(=O)N(C)c1ccccc1)c1ccccc1` [Compound 40]: on human Factor XIa, the IC50 was less than 10 nM. Moreover, at Trypsin, the “Ratio: Trypsin/FXIa” value was “G (“G” indicates 1-100)”. For the same compound, the “Ratio: Thrombin/FXIa” value at Thrombin is “H (“H” indicates 101-1000)”. The “FXa/FXIa (selectivity ratio)” value at Factor Xa is given as “H (“H” indicates 101-1000)”.
For the compound `CCN(C(=O)[C@@H]1[C@@H](Cc2ccnc(N)c2)C(=O)N1C(=O)N[C@@H](C1CCCCC1)C1CC1)c1ccccc1` [Compound 55], the half-maximal inhibitory concentration (IC50) on human Factor XIa is less than 10 nM. Moreover, the “Ratio: Trypsin/FXIa” value at Trypsin is on record as “G (“G” indicates 1-100)”. In addition, the “Ratio: Thrombin/FXIa” value at Thrombin is listed as “H (“H” indicates 101-1000)”. For the same compound, the “FXa/FXIa (selectivity ratio)” value on Factor Xa is recorded as “I (“I” indicates >500)”.
On the same counts, the results for `CN(C(=O)[C@@H]1[C@@H](Cc2ccncc2)C(=O)N1C(=O)N[C@@H](C1CCCCC1)C1CC1)c1ccncc1` [Compound 64] are 10 to 100 nM, “H (“H” indicates 101-1000)”, “H (“H” indicates 101-1000)” and “H (“H” indicates 101-1000)”.
On the same counts, the results for `CC[C@@H](NC(=O)N1C(=O)[C@H](Cc2ccnc(N)c2)[C@H]1C(=O)N(C)c1ccncc1)c1cccc(Br)c1` [Compound 98] are less than 10 nM, “G (“G” indicates 1-100)”, “H (“H” indicates 101-1000)” and “H (“H” indicates 101-1000)”.
Consider `CC[C@@H](NC(=O)N1C(=O)[C@H](Cc2ccnc(N)c2)[C@H]1C(=O)N(C)c1ccncc1)c1ccc(C)nc1` [Compound 104], for which the concentration for half-maximal inhibition (IC50) at human Factor XIa is less than 10 nM. Further, at Trypsin, the “Ratio: Trypsin/FXIa” value was “H (“H” indicates 101-1000)”. In addition, the “Ratio: Thrombin/FXIa” value on Thrombin is recorded as “H (“H” indicates 101-1000)”. Moreover, the “FXa/FXIa (selectivity ratio)” value on Factor Xa was “I (“I” indicates >500)”.
As to `CC[C@@H](NC(=O)N1C(=O)[C@H](Cc2ccnc(N)c2)[C@H]1C(=O)N(C)c1ccncc1)c1cc(Cl)ccc1Cl` [Compound 112], the half-inhibitory concentration (IC50) on human Factor XIa was less than 10 nM. The “Ratio: Trypsin/FXIa” value on Trypsin was “G (“G” indicates 1-100)”. Moreover, the “Ratio: Thrombin/FXIa” value on Thrombin is reported as “H (“H” indicates 101-1000)”. Moreover, on Factor Xa, the “FXa/FXIa (selectivity ratio)” value is listed as “H (“H” indicates 101-1000)”.
On to `CC[C@@H](NC(=O)N1C(=O)[C@H](Cc2ccnc(N)c2)[C@H]1C(=O)N(C)c1cccc(F)c1)c1cccc(Cl)c1` [Compound 116], for which, on human Factor XIa, the IC50 was less than 10 nM. In addition, the “Ratio: Trypsin/FXIa” value on Trypsin is recorded as “G (“G” indicates 1-100)”. Also, the “Ratio: Thrombin/FXIa” value on Thrombin was “H (“H” indicates 101-1000)”. The “FXa/FXIa (selectivity ratio)” value on Factor Xa was “H (“H” indicates 101-1000)”.
For `CC[C@@H](NC(=O)N1C(=O)[C@H](Cc2ccnc(N)c2)[C@H]1C(=O)N(C)c1cccc(C)c1)c1cccc(Cl)c1` [Compound 117], at human Factor XIa, the IC50 is less than 10 nM. The “Ratio: Trypsin/FXIa” value at Trypsin is reported as “G (“G” indicates 1-100)”. Moreover, the “Ratio: Thrombin/FXIa” value at Thrombin was “G (“G” indicates 1-100)”. Moreover, the “FXa/FXIa (selectivity ratio)” value on Factor Xa is given as “H (“H” indicates 101-1000)”.
Take `CC[C@@H](NC(=O)N1C(=O)[C@H](Cc2ccnc(N)c2)[C@H]1C(=O)N(C)c1cccc(Cl)c1)c1cccc(Cl)c1` [Compound 118]: the IC50 on human Factor XIa was less than 10 nM. For the same compound, the “Ratio: Trypsin/FXIa” value at Trypsin is “G (“G” indicates 1-100)”. Moreover, at Thrombin, the “Ratio: Thrombin/FXIa” value was “G (“G” indicates 1-100)”. For the same compound, at Factor Xa, the “FXa/FXIa (selectivity ratio)” value was “H (“H” indicates 101-1000)”.
In the case of `CC[C@@H](NC(=O)N1C(=O)[C@H](Cc2cc(C)nc(N)c2)[C@H]1C(=O)N(C)c1ccccc1)c1ccccc1` [Compound 119], the half-maximal inhibitory concentration (IC50) at human Factor XIa is less than 10 nM. In addition, the “Ratio: Trypsin/FXIa” value at Trypsin is listed as “G (“G” indicates 1-100)”. Also, the “Ratio: Thrombin/FXIa” value at Thrombin is given as “H (“H” indicates 101-1000)”. The “FXa/FXIa (selectivity ratio)” value at Factor Xa is “I (“I” indicates >500)”.
The like results for `CC[C@@H](NC(=O)N1C(=O)[C@H](Cc2ccnc(N)c2)[C@H]1C(=O)N(C)c1ccnc(C)c1)c1cccc(Cl)c1` [Compound 124] were, in that order, less than 10 nM, “G (“G” indicates 1-100)”, “G (“G” indicates 1-100)” and “H (“H” indicates 101-1000)”.
In the case of `CC[C@@H](NC(=O)N1C(=O)[C@H](Cc2cc(C)nc(N)c2)[C@H]1C(=O)N(C)c1ncccn1)c1cccc(Cl)c1` [Compound 135], the IC50 on human Factor XIa was less than 10 nM. The “Ratio: Trypsin/FXIa” value at Trypsin is recorded as “G (“G” indicates 1-100)”. In addition, the “Ratio: Thrombin/FXIa” value on Thrombin is “H (“H” indicates 101-1000)”. In addition, the “FXa/FXIa (selectivity ratio)” value on Factor Xa is “I (“I” indicates >500)”.

Values taken from patent US20190315711A1 (eXIthera Pharmaceuticals, Inc., priority 2016, published 2019).
